Our source for the IC50 values is patent publication US8710224B2, “Heterocyclic compounds as CCR2B antagonists” (AstraZeneca AB, priority 2004, dated 2014).

Molecules are shown by their SMILES. Bounds are passed on as bounds.

In this experiment the target is T1, recombinant human CCR5 receptor (Homo sapiens, UniProt P51681).
T1 construct: expressed in transfected cells; host or cells: Chinese hamster ovary (CHO) cells; membranes
Nature of the experiment: Radioligand binding assay for inhibition of the binding of MIP-1α. The note with it: displacement of 0.1 nM iodinated MIP-1α; membranes of Chinese hamster ovary cells expressing CCR5. In outline: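 Membranes from CHO cells expressing recombinant human CCR5 were incubated with 0.1 nM iodinated MIP-1α, scintillation proximity beads and compound at various concentrations. Bound radioligand was measured by scintillation counting.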

T1 sequence (P51681 whole entry): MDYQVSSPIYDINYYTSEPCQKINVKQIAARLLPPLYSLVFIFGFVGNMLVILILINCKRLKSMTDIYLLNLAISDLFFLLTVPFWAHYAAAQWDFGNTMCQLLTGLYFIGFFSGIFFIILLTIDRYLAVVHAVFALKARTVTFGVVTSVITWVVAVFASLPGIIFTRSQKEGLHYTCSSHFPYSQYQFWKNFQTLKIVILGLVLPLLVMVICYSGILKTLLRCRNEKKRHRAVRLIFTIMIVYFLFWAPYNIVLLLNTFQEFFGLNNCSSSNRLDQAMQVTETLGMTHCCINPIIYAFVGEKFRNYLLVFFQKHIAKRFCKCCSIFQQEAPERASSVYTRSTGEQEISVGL

Consider `CS(=O)(=O)c1ccc(CCCN2CCC[C@@H](CN3CCN(C(=O)Nc4ccccc4)CC3)C2)cc1` [Example 254, 4-[[(3R)-1-[3-(4-methylsulfonylphenyl)propyl]-3-piperidyl]methyl]-N-phenyl-piperazine-1-carboxamide], for which the IC50 (commonly the midpoint of a concentration-inhibition curve) is < 10 µM.

Consider `O=C(Nc1ccc(Cl)c(Cl)c1)N1CCN(C[C@@H]2CCCN(Cc3ccc(N4CCOCC4)nc3)C2)CC1` [Example 255, N-(3,4-dichlorophenyl)-4-[[(3R)-1-[(6-morpholin-4-ylpyridin-3-yl)methyl]-3-piperidyl]methyl]piperazine-1-carboxamide], for which the IC50 was < 10 µM.

In the case of `O=C(Nc1ccc(Cl)c(Cl)c1)N1CCN(C[C@@H]2CCCN(Cc3ccc(Cl)nc3)C2)CC1` [Example 256, 4-({(3R)-1-[(6-chloropyridin-3-yl)methyl]piperidin-3-yl}methyl)-N-(3,4-dichlorophenyl)piperazine-1-carboxamide], the 50% inhibitory concentration (IC50) was < 10 µM.

With `O=C(Nc1ccc(Cl)c(Cl)c1)N1CCN(C[C@@H]2CCCN(Cc3ccc(O)nc3)C2)CC1` [Example 257, N-(3,4-dichlorophenyl)-4-({(3R)-1-[(6-hydroxypyridin-3-yl)methyl]piperidin-3-yl}methyl)piperazine-1-carboxamide], the IC50 is < 10 µM.

`COCCOc1ccc(CN2CCC[C@@H](CN3CCN(C(=O)Nc4ccc(Cl)c(Cl)c4)CC3)C2)cn1` [Example 258, N-(3,4-dichlorophenyl)-4-[((3R)-1-{[6-(2-methoxyethoxy)pyridin-3-yl]methyl}piperidin-3-yl)methyl]piperazine-1-carboxamide]: the IC50 is < 10 µM.

In the case of `CC(C)N1CCN[C@@H](C(=O)N2CCN(C(=O)Nc3cccc(Oc4ccccc4)c3)CC2)C1` [Example 260, 4-{[(2R)-4-Isopropylpiperazin-2-yl]carbonyl}-N-(3-phenoxyphenyl) piperazine-1-carboxamide], the IC50 is < 10 µM.

As to `CC(C)N1CCN[C@@H](C(=O)N2CCN(C(=O)Nc3ncc(Cl)s3)CC2)C1` [Example 264, N-(5-Chloro-1,3-thiazol-2-yl)-4-{[(2R)-4-isopropylpiperazin-2-yl]carbonyl}piperazine-1-carboxamide], the IC50 was < 10 µM.

For the molecule `CC(C)N1CCN[C@@H](C(=O)N2CCN(C(=O)Nc3ccc(Cl)c(F)c3)CC2)C1` [Example 265, N-(4-Chloro-3-fluorophenyl)-4-{[(2R)-4-isopropylpiperazin-2-yl]carbonyl}piperazine-1-carboxamide], the IC50 was < 10 µM.

As for `Nc1ncccc1CN1CCCC(CN2CCN(C(=O)Nc3ccc(F)c(Cl)c3)CC2)C1` (centres unmarked) [Example 266, 4-({1-[(2-aminopyridin-3-yl)methyl]piperidin-3-yl}methyl)-N-(3-chloro-4-fluorophenyl)piperazine-1-carboxamide], the IC50 was < 10 µM.

Take `O=C(Nc1ccc(Cl)c(Cl)c1)N1CCN(C(=O)[C@H]2CN(CC3CC3)CCN2)CC1` [Example 268, 4-{[(2R)-4-(cyclopropylmethyl)piperazin-2-yl]carbonyl}-N-(3,4-dichlorophenyl)piperazine-1-carboxamide]: the IC50 is < 10 µM.

In the case of `CC(CC(C)(C)O)N1CCN[C@@H](C(=O)N2CCN(C(=O)Nc3ccc(Cl)c(Cl)c3)CC2)C1` (stereo partly drawn) [Example 269, N-(3,4-dichlorophenyl)-4-{[(2R)-4-(3-hydroxy-1,3-dimethylbutyl)piperazin-2-yl]carbonyl}piperazine-1-carboxamide], the IC50 is < 10 µM.

As for `CCCC(C)N1CCN[C@@H](C(=O)N2CCN(C(=O)Nc3ccc(Cl)c(Cl)c3)CC2)C1` (stereo partly drawn) [Example 270, N-(3,4-dichlorophenyl)-4-{[(2R)-4-(1-methylbutyl)piperazin-2-yl]carbonyl}piperazine-1-carboxamide], the IC50 is < 10 µM.

For the molecule `O=C(Nc1ccc(Cl)c(Cl)c1)N1CCN(C(=O)[C@H]2CN(CC3CCOC3)CCN2)CC1` (stereo partly drawn) [Example 271, N-(3,4-dichlorophenyl)-4-{[(2R)-4-(tetrahydrofuran-3-ylmethyl)piperazin-2-yl]carbonyl}piperazine-1-carboxamide], the IC50 was < 10 µM.

As to `O=C(Nc1ccc(Cl)c(Cl)c1)N1CCN(C(=O)[C@H]2CN(CCCc3ncc(F)cn3)CCN2)CC1` [Example 273, N-(3,4-dichlorophenyl)-4-({(2R)-4-[3-(5-fluoropyrimidin-2-yl)propyl]piperazin-2-yl}carbonyl)piperazine-1-carboxamide], the IC50 is < 10 µM.

Consider `O=C(Nc1ccc(Cl)c(Cl)c1)N1CCN(C(=O)[C@H]2CN(C3CCC3)CCN2)CC1` [Example 275, 4-{[(2R)-4-Cyclobutylpiperazin-2-yl]carbonyl}-N-(3,4-dichlorophenyl)piperazine-1-carboxamide], for which the IC50 was < 10 µM.

With `O=C(Nc1ccc(Cl)c(Cl)c1)N1CCN(C(=O)[C@H]2CN(C3CCCC3)CCN2)CC1` [Example 276, 4-{[(2R)-4-Cyclopentylpiperazin-2-yl]carbonyl}-N-(3,4-dichlorophenyl)piperazine-1-carboxamide], the IC50 was < 10 µM.

In the case of `O=C(Nc1ccc(Cl)c(Cl)c1)N1CCN(C(=O)[C@H]2CN(C3CCCCC3)CCN2)CC1` [Example 277, 4-{[(2R)-4-Cyclohexylpiperazin-2-yl]carbonyl}-N-(3,4-dichlorophenyl)piperazine-1-carboxamide], the IC50 was < 10 µM.

As to `O=C(Nc1ccc(Cl)c(Cl)c1)N1CCN(C(=O)[C@H]2CN(C3CCC(O)(c4ccccn4)CC3)CCN2)CC1` (stereo partly drawn) [Example 279, N-(3,4-Dichlorophenyl)-4-{[(2R)-4-(4-hydroxy-4-pyridin-2-ylcyclohexyl)piperazin-2-yl]carbonyl}piperazine-1-carboxamide], the IC50 was < 10 µM.

Consider `O=C(Nc1ccc(Cl)c(Cl)c1)N1CCN(C(=O)[C@H]2CN(C3CCSCC3)CCN2)CC1` [Example 280, N-(3,4-Dichlorophenyl)-4-{[(2R)-4-(tetrahydro-2H-thiopyran-4-yl)piperazin-2-yl]carbonyl}piperazine-1-carboxamide], for which the IC50 is < 10 µM.

As for `CC(C1CC1)N1CCN[C@@H](C(=O)N2CCN(C(=O)Nc3ccc(Cl)c(Cl)c3)CC2)C1` (stereo partly drawn) [Example 281, 4-{[(2R)-4-(1-Cyclopropylethyl)piperazin-2-yl]carbonyl}-N-(3,4-dichlorophenyl)piperazine-1-carboxamide], the IC50 was < 10 µM.

Consider `CC(C)N1CCN[C@@H](C(=O)N2CCN(C(=O)Nc3cc(Cl)cc(Cl)c3)CC2)C1` [Example 287, N-(3,5-Dichlorophenyl)-4-{[(2R)-4-isopropylpiperazin-2-yl]carbonyl}piperazine-1-carboxamide], for which the IC50 was < 10 µM.

Regarding `CC(C)N1CCN[C@@H](C(=O)N2CCN(C(=O)Nc3cc(F)cc(C(F)(F)F)c3)CC2)C1` [Example 288, N-[3-Fluoro-5-(trifluoromethyl)phenyl]-4-{[(2R)-4-isopropylpiperazin-2-yl]carbonyl}piperazine-1-carboxamide], the IC50 is < 10 µM.

With `CC(C)N1CCN[C@@H](C(=O)N2CCN(C(=O)Nc3nc(C(F)(F)F)cs3)CC2)C1` [Example 290, 4-{[(2R)-4-Isopropylpiperazin-2-yl]carbonyl}-N-[4-(trifluoromethyl)-1,3-thiazol-2-yl]piperazine-1-carboxamide], the IC50 is < 10 µM.

With `CC(C)N1CCN[C@@H](C(=O)N2CCN(C(=O)Nc3ccc(C#N)c(C(F)(F)F)c3)CC2)C1` [Example 292, N-[4-Cyano-3-(trifluoromethyl)phenyl]-4-{[(2R)-4-isopropylpiperazin-2-yl]carbonyl}piperazine-1-carboxamide], the IC50 was < 10 µM.

Take `C=CCN1CCN[C@@H](C(=O)N2CCN(C(=O)Nc3ccc(Cl)c(Cl)c3)CC2)C1` [Example 303, N-(3,4-dichlorophenyl)-4-{[(2R)-4-(prop-2-en-1-yl)piperazin-2-yl]carbonyl}piperazine-1-carboxamide]: the IC50 was < 10 µM.

For the molecule `C=C(C)CN1CCN[C@@H](C(=O)N2CCN(C(=O)Nc3ccc(Cl)c(Cl)c3)CC2)C1` [Example 304, N-(3,4-dichlorophenyl)-4-{[(2R)-4-(2-methylprop-2-en-1-yl)piperazin-2-yl]carbonyl}piperazine-1-carboxamide], the IC50 was < 10 µM.

For the molecule `CC(C)N1CCN[C@@H](C(=O)N2CCN(C(=O)Nc3ccc(C(F)(F)F)cn3)CC2)C1` [Example 311, 4-{[(2R)-4-isopropylpiperazin-2-yl]carbonyl}-N-[5-(trifluoromethyl)pyridin-2-yl]piperazine-1-carboxamide], the IC50 is < 10 µM.

In the case of `CS(=O)(=O)c1ccc(CN2CCC[C@@H](CN3CCN(C(=O)Nc4ccc(Cl)c(Cl)c4)CC3)C2)c(Cl)c1` [Example 322, 4-({(3R)-1-[2-Chloro-4-(methylsulfonyl)benzyl]piperidin-3-yl}methyl)-N-(3,4-dichlorophenyl)piperazine-1-carboxamide], the IC50 is < 10 µM.

For `Cc1ccc(NC(=O)N2CCN(C[C@@H]3CCCN(CCCc4ccc(S(C)(=O)=O)cc4)C3)CC2)cc1Cl` [Example 324, N-(3-Chloro-4-methylphenyl)-4-[((3R)-1-{3-[4-(methylsulfonyl)phenyl]propyl}piperidin-3-yl)methyl]piperazine-1-carboxamide], the 50% inhibitory concentration (IC50) is < 10 µM.

With `CS(=O)(=O)c1ccc(CCCN2CCC[C@@H](CN3CCN(C(=O)Nc4ccc(Cl)cc4)CC3)C2)cc1` [Example 325, N-(4-Chlorophenyl)-4-[((3R)-1-{3-[4-(methylsulfonyl)phenyl]propyl}piperidin-3-yl)methyl]piperazine-1-carboxamide], the IC50 is < 10 µM.

With `CS(=O)(=O)c1ccc(CCCN2CCC[C@@H](CN3CCN(C(=O)Nc4ccc(C(F)(F)F)cc4)CC3)C2)cc1` [Example 326, 4-[((3R)-1-{3-[4-(Methylsulfonyl)phenyl]propyl}piperidin-3-yl)methyl]-N-[4-(trifluoromethyl)phenyl]piperazine-1-carboxamide], the IC50 was < 10 µM.

As for `CS(=O)(=O)c1ccc(CCCN2CCC[C@@H](CN3CCN(C(=O)Nc4cccc(Cl)c4)CC3)C2)cc1` [Example 327, N-(3-Chlorophenyl)-4-[((3R)-1-{3-[4-(methylsulfonyl)phenyl]propyl}piperidin-3-yl)methyl]piperazine-1-carboxamide], the IC50 is < 10 µM.
